Source: ChEMBL document CHEMBL5625220, “Discovery of anti-neuroinflammatory agents from 1,4,5,6-tetrahydrobenzo[2,3]oxepino[4,5-d]pyrimidin-2-amine derivatives by regulating microglia polarization” (Eur J Med Chem, 2023)
Active and inactive are the calls of the source. The calls are words filed in the database; no cut-off is given here.

What was measured:
[1] = Cytotoxicity against mouse BV-2 cells assessed as survival rate at 5 uM incubated for 24 hrs by CCK8 assay relative to control; assay type: toxicity, cell-based; details: read-out: Survival
BV-2 [2] = assay: Anti-inflammatory activity in mouse BV-2 cells assessed as inhibition of LPS-induced TNF-alpha production at 5 uM preincubated with LPS for 2 hrs followed by compound addition and measured after 24 hrs by ELISA relative to control; assay type: functional
BV-2 [3] = assay: (§1) Anti-neuroinflammatory activity in mouse BV-2 cells assessed as microglial polarization into M2 phenotype by measuring increase in CD206 expression preincubated with LPS for 2 hrs followed by compound addition and measured after 24 hrs by immunofluorescence staining based confocal microscopic analysis; assay type: functional, cell-based
BV-2 [4] = assay: as §1, with “decrease” for “increase”, “iNOS” for “CD206”; assay type: functional, cell-based
BV-2 [5] = assay: Induction of microglial polarization to M2 phenotype in mouse BV-2 cells assessed as decrease in number of M1 phenotype microglial cells incubated for 24 hrs by flow cytometric analysis; assay type: functional, cell-based
BV-2 [6] = assay: Induction of microglial polarization to M2 phenotype in mouse BV-2 cells assessed as increase in number of M2 phenotype microglial cells incubated for 24 hrs by flow cytometric analysis; assay type: functional, cell-based
BV-2 [7] = assay: Anti-neuroinflammatory activity in LPS-induced mouse BV-2 cells assessed as decrease in iNOS labeled microglial cells preincubated with LPS for 2 hrs followed by compound addition and measured after 24 hrs by flow cytometric analysis; assay type: functional, cell-based
BV-2 [8] = assay: Anti-neuroinflammatory activity in LPS-induced mouse BV-2 cells assessed as decrease in CD86 labeled microglial cells preincubated with LPS for 2 hrs followed by compound addition and measured after 24 hrs by flow cytometric analysis; assay type: functional, cell-based
BV-2 [9] = assay: Anti-neuroinflammatory activity in LPS-induced mouse BV-2 cells assessed as increase in CD206 labeled microglial cells preincubated with LPS for 2 hrs followed by compound addition and measured after 24 hrs by flow cytometric analysis; assay type: functional, cell-based
BV-2 [10] = assay: Anti-neuroinflammatory activity in LPS-induced mouse BV-2 cells assessed as increase in Arg-1 labeled microglial cells preincubated with LPS for 2 hrs followed by compound addition and measured after 24 hrs by flow cytometric analysis; assay type: functional, cell-based
BV-2 [11] = assay: Effect on TNF-alpha expression in mouse BV-2 cells incubated for 24 hrs by ELISA; assay type: functional, cell-based
BV-2 [12] = assay: Effect on IL-18 expression in mouse BV-2 cells incubated for 24 hrs by ELISA; assay type: functional, cell-based
BV-2 [13] = assay: Effect on IL-1beta expression in mouse BV-2 cells incubated for 24 hrs by ELISA; assay type: functional, cell-based
BV-2 [14] = assay: Effect on IL-10 expression in mouse BV-2 cells incubated for 24 hrs by ELISA; assay type: functional, cell-based
BV-2 [15] = assay: Anti-neuroinflammatory activity in LPS-induced mouse BV-2 cells assessed as decrease in TNF-alpha secretion preincubated with LPS for 2 hrs followed by compound addition and measured after 24 hrs by ELISA; assay type: functional, cell-based
BV-2 [16] = assay: Anti-neuroinflammatory activity in LPS-induced mouse BV-2 cells assessed as decrease in IL-1beta secretion preincubated with LPS for 2 hrs followed by compound addition and measured after 24 hrs by ELISA; assay type: functional, cell-based
BV-2 [17] = assay: Anti-neuroinflammatory activity in LPS-induced mouse BV-2 cells assessed as decrease in IL-18 secretion preincubated with LPS for 2 hrs followed by compound addition and measured after 24 hrs by ELISA; assay type: functional, cell-based
BV-2 [18] = assay: Anti-neuroinflammatory activity in LPS-induced mouse BV-2 cells assessed as increase in IL-10 secretion preincubated with LPS for 2 hrs followed by compound addition and measured after 24 hrs by ELISA; assay type: functional, cell-based
BV-2 [19] = assay: Effect on NLRP3 expression in mouse BV-2 cells incubated for 24 hrs by Western blot analysis; assay type: functional, cell-based
BV-2 [20] = assay: Effect on ASC expression in mouse BV-2 cells incubated for 24 hrs by Western blot analysis; assay type: functional, cell-based
BV-2 [21] = assay: Effect on caspase-1 expression in mouse BV-2 cells incubated for 24 hrs by Western blot analysis; assay type: functional, cell-based
[22] = molecular target: NACHT, LRR and PYD domains-containing protein 3 (Mus musculus) (UniProt Q8R4B8); assay: Inhibition of NLRP3 inflammasome formation in LPS-stimulated mouse BV-2 cells assessed as downregulation of NLRP3 protein expression preincubated with LPS for 2 hrs followed by compound addition and measured after 24 hrs by Western blot analysis; assay type: cell-based
Sequence of NACHT, LRR and PYD domains-containing protein 3 (Mus musculus) (Q8R4B8 whole entry, the tested form may be a part): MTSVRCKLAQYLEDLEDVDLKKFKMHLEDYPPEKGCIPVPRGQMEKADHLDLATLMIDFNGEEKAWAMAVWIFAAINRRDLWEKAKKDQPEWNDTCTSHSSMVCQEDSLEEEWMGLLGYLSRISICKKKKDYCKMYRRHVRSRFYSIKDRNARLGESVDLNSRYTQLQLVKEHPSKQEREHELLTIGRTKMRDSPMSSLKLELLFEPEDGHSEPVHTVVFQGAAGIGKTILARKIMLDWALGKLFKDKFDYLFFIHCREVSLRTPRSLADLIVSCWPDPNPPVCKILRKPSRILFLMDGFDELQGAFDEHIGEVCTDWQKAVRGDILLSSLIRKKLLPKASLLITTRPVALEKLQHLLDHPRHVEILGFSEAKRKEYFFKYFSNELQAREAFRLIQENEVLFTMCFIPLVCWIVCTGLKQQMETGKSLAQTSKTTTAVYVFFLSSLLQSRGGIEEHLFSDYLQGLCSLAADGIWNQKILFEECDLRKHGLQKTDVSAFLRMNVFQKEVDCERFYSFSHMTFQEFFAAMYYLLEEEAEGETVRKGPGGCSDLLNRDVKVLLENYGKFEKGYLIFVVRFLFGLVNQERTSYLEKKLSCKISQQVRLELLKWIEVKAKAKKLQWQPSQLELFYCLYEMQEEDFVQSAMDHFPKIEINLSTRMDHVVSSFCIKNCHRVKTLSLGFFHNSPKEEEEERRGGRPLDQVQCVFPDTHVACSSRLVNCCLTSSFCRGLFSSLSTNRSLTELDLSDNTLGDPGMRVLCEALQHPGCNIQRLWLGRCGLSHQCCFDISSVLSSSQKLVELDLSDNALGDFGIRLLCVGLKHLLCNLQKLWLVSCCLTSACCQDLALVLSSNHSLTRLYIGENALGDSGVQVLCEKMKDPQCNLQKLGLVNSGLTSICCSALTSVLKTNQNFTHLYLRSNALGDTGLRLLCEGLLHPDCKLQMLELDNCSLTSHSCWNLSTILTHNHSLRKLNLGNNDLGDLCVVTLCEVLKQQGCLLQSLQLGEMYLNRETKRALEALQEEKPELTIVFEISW

[23] = molecular target: NACHT, LRR and PYD domains-containing protein 3 (Mus musculus) (UniProt Q8R4B8); assay: Inhibition of NLRP3 inflammasome formation in LPS-stimulated mouse BV-2 cells assessed as downregulation of ASC protein expression preincubated with LPS for 2 hrs followed by compound addition and measured after 24 hrs by Western blot analysis; assay type: cell-based
[24] = molecular target: NACHT, LRR and PYD domains-containing protein 3 (Mus musculus) (UniProt Q8R4B8); assay: Inhibition of NLRP3 inflammasome formation in LPS-stimulated mouse BV-2 cells assessed as downregulation of caspase-1 protein expression preincubated with LPS for 2 hrs followed by compound addition and measured after 24 hrs by Western blot analysis; assay type: cell-based
BV-2 [25] = assay: Downregulation of PKM2 expression in LPS-stimulated mouse BV-2 cells preincubated with LPS for 2 hrs followed by compound addition and measured after 24 hrs by Western blot analysis; assay type: functional, cell-based
BV-2 [26] = assay: Downregulation of PKM2 expression in LPS-stimulated mouse BV-2 cells preincubated with LPS for 2 hrs followed by compound addition and measured after 24 hrs by immunofluorescence staining based confocal microscopic analysis; assay type: functional, cell-based
Mus musculus [27] = assay: Anti-inflammatory activity in cuprizone fed C57BL/6 mouse model assessed as increase in remyelination in corpus callosum at 5 mg/kg, ip pretreated with cuprizone for 6 weeks followed by compound administration for 2 weeks by LFB staining based analysis; assay type: functional, organism-based
Mus musculus [28] = assay: Anti-inflammatory activity in cuprizone fed C57BL/6 mouse model assessed as increase in CD206 expression in corpus callosum at 5 mg/kg, ip pretreated with cuprizone for 6 weeks followed by compound administration for 2 weeks by immunofluorescence staining based confocal microscopic analysis; assay type: functional, organism-based
Mus musculus [29] = assay: Anti-inflammatory activity in cuprizone fed C57BL/6 mouse model assessed as decrease in iNOS expression in corpus callosum at 5 mg/kg, ip pretreated with cuprizone for 6 weeks followed by compound administration for 2 weeks by immunofluorescence staining based confocal microscopic analysis; assay type: functional, organism-based
BV-2 [30] = assay: Anti-inflammatory activity in mouse BV-2 cells assessed as inhibition of LPS-induced TNF-alpha production at 2.5 ug/ml preincubated with LPS for 2 hrs followed by compound addition and measured after 24 hrs by ELISA relative to control; assay type: functional

## COc1cc(OC)c2c(c1)OCC/C(=C\c1cc(C(F)(F)F)cc(C(F)(F)F)c1)C2=O
[1]
  viability at 24 h, 5 µM: 95%
BV-2 [2]
  inhibition at 5 µM: 88.6%

## COc1cc(OC)c2c(c1)OCCC1=C2NC(N)=NC1c1cc(C(F)(F)F)cc(C(F)(F)F)c1 (stereo unspecified)
[1]
  viability at 24 h, 5 µM: 151%
BV-2 [2]
  inhibition at 5 µM: 94.5%
BV-2 [3]
  Activity: Active
BV-2 [4]
  Activity: Active
BV-2 [5]
  Activity: inactive
BV-2 [6]
  Activity: Active
BV-2 [7]
  Activity: Active
BV-2 [8]
  Activity: Active
BV-2 [9]
  Activity: Active
BV-2 [10]
  Activity: Active
BV-2 [11]
  Activity: inactive
BV-2 [12]
  Activity: inactive
BV-2 [13]
  Activity: inactive
BV-2 [14]
  Activity: inactive
BV-2 [15]
  Activity: Active
BV-2 [16]
  Activity: Active
BV-2 [17]
  Activity: Active
BV-2 [18]
  Activity: Active
BV-2 [19]
  Activity: inactive
BV-2 [20]
  Activity: inactive
BV-2 [21]
  Activity: inactive
[22]
  inhibition: Active
[23]
  inhibition: Active
[24]
  inhibition: Active
BV-2 [25]
  Activity: Active
BV-2 [26]
  Activity: Active
Mus musculus [27]
  Activity: Active
Mus musculus [28]
  Activity: Active
Mus musculus [29]
  Activity: Active

## COc1cc(OC)c2c(c1)OCC/C(=C\c1cccc(C(F)(F)F)c1F)C2=O
[1]
  viability at 24 h, 5 µM: 117%
BV-2 [2]
  inhibition at 5 µM: 88.7%

## COc1cc(OC)c2c(c1)OCCC1=C2NC(N)=NC1c1c(F)cccc1C(F)(F)F (stereo unspecified)
[1]
  viability at 24 h, 5 µM: 124%
BV-2 [2]
  inhibition at 5 µM: 65.7%

## COc1cc(OC)c2c(c1)OCC/C(=C\c1ccc(F)cc1C(F)(F)F)C2=O
[1]
  viability at 24 h, 5 µM: 114%
BV-2 [2]
  inhibition at 5 µM: 69.5%

## COc1cc(OC)c2c(c1)OCC/C(=C\c1cc(F)cc(F)c1)C2=O
[1]
  viability at 24 h, 5 µM: 150%
BV-2 [2]
  inhibition at 5 µM: 73.6%

## COc1cc(OC)c2c(c1)OCCC1=C2NC(N)=NC1c1ccc(F)cc1 (stereo unspecified)
[1]
  viability at 24 h, 5 µM: 157%
BV-2 [2]
  inhibition at 5 µM: 56.8%

## COc1cc(OC)c2c(c1)OCC/C(=C\c1c(F)cccc1F)C2=O
[1]
  viability at 24 h, 5 µM: 146%
BV-2 [2]
  inhibition at 5 µM: 62.5%

## COc1cc(OC)c2c(c1)OCC/C(=C\c1ccccc1F)C2=O
[1]
  viability at 24 h, 5 µM: 146%
BV-2 [2]
  inhibition at 5 µM: 62.1%

## COc1cc(OC)c2c(c1)OCCC1=C2NC(N)=NC1c1ccc(C(F)(F)F)cc1 (stereo unspecified)
[1]
  viability at 24 h, 5 µM: 150%
BV-2 [2]
  inhibition at 5 µM: 72.1%

## COc1cc(OC)c2c(c1)OCC/C(=C\c1ccccc1C(F)(F)F)C2=O
[1]
  viability at 24 h, 5 µM: 142%
BV-2 [2]
  inhibition at 5 µM: 74.3%

## COc1cc(OC)c2c(c1)OCCC1=C2NC(N)=NC1c1cccc(F)c1 (stereo unspecified)
[1]
  viability at 24 h, 5 µM: 120%
BV-2 [2]
  inhibition at 5 µM: 74.3%

## COc1cc(OC)c2c(c1)OCC/C(=C\c1ccc(F)cc1)C2=O
[1]
  viability at 24 h, 5 µM: 148%
BV-2 [2]
  inhibition at 5 µM: 46.3%

## COc1cc(OC)c2c(c1)OCC/C(=C\c1cccc(F)c1)C2=O
[1]
  viability at 24 h, 5 µM: 146%
BV-2 [2]
  inhibition at 5 µM: 69.3%

## COc1cc(OC)c2c(c1)OCCC1=C2NC(N)=NC1c1ccc(F)cc1C(F)(F)F (stereo unspecified)
[1]
  viability at 24 h, 5 µM: 87.4%
BV-2 [2]
  inhibition at 5 µM: 66.4%

## COc1cc(OC)c2c(c1)OCC/C(=C\c1cccc(F)c1C(F)(F)F)C2=O
[1]
  viability at 24 h, 5 µM: 120%
BV-2 [2]
  inhibition at 5 µM: 68.3%

## COc1cc(OC)c2c(c1)OCCC1=C2NC(N)=NC1c1cccc(C(F)(F)F)c1F (stereo unspecified)
[1]
  viability at 24 h, 5 µM: 111%
BV-2 [2]
  inhibition at 5 µM: 91.5%

## COc1cc(OC)c2c(c1)OCCC1=C2NC(N)=NC1c1cccc(C(F)(F)F)c1 (stereo unspecified)
[1]
  viability at 24 h, 5 µM: 109%
BV-2 [2]
  inhibition at 5 µM: 82.6%

## COc1cc(OC)c2c(c1)OCC/C(=C\c1ccc(C(F)(F)F)cc1)C2=O
[1]
  viability at 24 h, 5 µM: 145%
BV-2 [2]
  inhibition at 5 µM: 65.8%

## COc1cc(OC)c2c(c1)OCC/C(=C\c1cc(F)ccc1F)C2=O
[1]
  viability at 24 h, 5 µM: 168%
BV-2 [2]
  inhibition at 5 µM: 74.1%

## COc1cc(OC)c2c(c1)OCCC1=C2NC(N)=NC1c1ccccc1F (stereo unspecified)
[1]
  viability at 24 h, 5 µM: 143%
BV-2 [2]
  inhibition at 5 µM: 73.4%

## COc1cc(OC)c2c(c1)OCCC1=C2NC(N)=NC1c1cc(F)cc(F)c1 (stereo unspecified)
[1]
  viability at 24 h, 5 µM: 128%
BV-2 [2]
  inhibition at 5 µM: 76.8%

## COc1cc(OC)c2c(c1)OCCC1=C2NC(N)=NC1c1cccc(F)c1C(F)(F)F (stereo unspecified)
[1]
  viability at 24 h, 5 µM: 95.4%
BV-2 [2]
  inhibition at 5 µM: 72.3%

## COc1cc(OC)c2c(c1)OCCC1=C2NC(N)=NC1c1ccccc1C(F)(F)F (stereo unspecified)
[1]
  viability at 24 h, 5 µM: 113%
BV-2 [2]
  inhibition at 5 µM: 70.2%

## COc1cc(OC)c2c(c1)OCCC(C(O)c1cccc(C(F)(F)F)c1)C2=O (stereo unspecified)
[1]
  viability at 24 h, 5 µM: 150%
BV-2 [2]
  inhibition at 5 µM: 65.1%

## COc1cc(OC)c2c(c1)OCC/C(=C\c1c(F)cccc1C(F)(F)F)C2=O
[1]
  viability at 24 h, 5 µM: 116%
BV-2 [2]
  inhibition at 5 µM: 36.8%

## S=C(S)N1CCCC1 [PYRROLIDINE DITHIOCARBAMATE]
BV-2 [30]
  inhibition at 2.5 µg/mL: 58.4%

## COc1cc(OC)c2c(c1)OCCC1=C2NC(N)=NC1c1c(F)cccc1F (stereo unspecified)
[1]
  viability at 24 h, 5 µM: 126%
BV-2 [2]
  inhibition at 5 µM: 67.4%

## COc1cc(OC)c2c(c1)OCCC1=C2NC(N)=NC1c1cc(F)ccc1F (stereo unspecified)
[1]
  viability at 24 h, 5 µM: 156%
BV-2 [2]
  inhibition at 5 µM: 73.5%

## COc1cncc(-c2nc(N)nc3c2CCc2ccc(F)cc2-3)c1
[1]
  viability at 24 h, 5 µM: 99.3%
BV-2 [2]
  inhibition at 5 µM: 62.9%
